Measurements taken from PubChem BioAssay AID1963833 (Molecular Pharmacology Branch, DTP, NCI, 2024).
pIC50: −log10 of the molar value. Several values for one entry are separate records, joined by “and”; a condition that tells them apart may be missing. Equal values may be shown once.

System: 883617-216-R-J1-PDC complex spheroid viability
Experiment: Anticancer human tumor 883617-216-R-J1-PDC patient-derived bladder carcinoma cell line growth inhibition [POLQ]
Details: for viability, T/C: stronger effect = lower value; for pIC50: curve of compound
Protocol: Multicellular complex tumor spheroid response to Polymerase (POL) inhibitors (novobiocin, ART-558, RP6685) in combination with a variety of drugs and investigational agents in selected tumor cell lines
The POL inhibitors (novobiocin, ART-558, and RP6685) were evaluated both individually and in combination with standard of care and investigational anticancer small molecules within a complex spheroid model of solid tumors. . Complex spheroids include a stromal component modeled by human endothelial cells (HUVEC) and fibroblasts modeled by human mesenchymal stem cells (MSCs). The concentration ranges selected for each drug and investigational agent were based upon clinically achievable concentrations if the clinical Cmax of the agent was known.
Compounds. The drugs and investigational agents: novobiocin (NSC847541), ART-558 (NSC835418), RP-6685 (NSC848927), peposertib (NSC802822), ceralasertib (NSC780249), elimusertib (NSC800525), camonsertib (NSC841442), AZD-1390 (NSC803789), olaparib (NSC753686), talazoparib (NSC767125), rucaparib (NSC756644), sotorasib (NSC818433), MRTX-1133 (NSC836407), SN-38 (NSC673596), topotecan (NSC609699), epotoside (NSC141540), doxorubicin (NSC123127), gemcitabine (NSC613327), 5-fluorouracil (NSC19893), paclitaxel (NSC125973), vemurafenib (NSC761431), MSA-2 (NSC828583), SN-011 (NSC837082), adavosertib (NSC754352), prexasertib (NSC758257), carboplatin (NSC241240) and oxaliplatin (NSC266046), were obtained from the National Cancer Institute (NCI) Developmental Therapeutics Program Chemical Repository (21). The FDA-approved anticancer drug set is available from the Developmental Therapeutics Program at https://dtp.cancer.gov/organization/dscb/obtaining/. […] The stock solutions were prepared in dimethyl sulfoxide (DMSO, Sigma-Aldrich, St. Louis, MO, cat. D2650), except for the platinum compounds which were prepared in saline (Quality Biological, Gaithersburg, MD, cat. 114-055-101), at 800-fold the tested concentration and stored at -70 degrees C prior to their use. All drugs and investigational agents were tested over a range starting from a high concentration at or near the clinical Cmax and decreasing in half-log increments. If the clinical Cmax for an agent had not been determined, the highest concentration tested was 10 microM, except for SN-38, which was tested at a high concentration of 1 microM.
Cell Culture. All cells were maintained in an incubator at 37 degrees C and 5% CO2 with 95% humidity. The PDC lines were cultured according to standard operating procedures established by the NCI PDMR (https://pdmr.cancer.gov). Table 3 of the manuscript, lists the cell lines along with the number of the three cell types plated to form the mct-spheroids and media for tumor cell growth. After thawing, all PDC lines, except 997537-175-T-J1-PDC and 415267-285-R-J2-PDC, were cultured in Matrigel-coated flasks prepared with a working solution of 1X Ham's F-12 nutrient mix, without supplementation (Thermo Fisher Scientific, cat. 11765054), 100 U/mL penicillin-streptomycin (Thermo Fisher Scientific, cat. 15140122), and 2.5% Matrigel (Corning Inc., Corning, NY, cat. 354248) for the first three passages. The two PDC lines 997537-175-T-J1-PDC and 415267-285-R-J2-PDC were cultured on uncoated flasks. The 857933-349-R-J2-PDC line was cultured in 6C/Colon 1B media containing advanced DMEM/F-12 (Thermo Fisher Scientific, cat. 12634028), 10 mM HEPES (Thermo Fisher Scientific, cat. 15630080), 1X GlutaMAX supplement (Thermo Fisher Scientific, cat. 35050061), 0.1 mg/mL primocin (InvivoGen, San Diego, CA, cat. ant-pm-2), 10% defined fetal bovine serum, heat inactivated (HyClone Laboratories Inc., Logan, UT, cat. SH30070.03HI), 50% L-WRN conditioned media (ATCC, cat. CRL-3276), 1.25 mM N-Acetyl-L-cysteine (Sigma-Aldrich, cat. A9165), 10 mM nicotinamide (Sigma-Aldrich, cat. N0636), 1X B-27 supplement (Thermo Fisher Scientific, cat. 17504044), 1X N-2 supplement (Thermo Fisher Scientific, cat. […]
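Also: spheroids exposed to compounds for seven days before readout.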
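For viability, T/C in this document: 100% = DMSO vehicle control viability.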

| Structure (SMILES) | viability, T/C (compound 0.00316 µM) | viability, T/C (compound 0.01 µM) | viability, T/C (compound 0.0316 µM) | viability, T/C (compound 0.1 µM) | viability, T/C (compound 0.316 µM) | viability, T/C (compound 1 µM) | pIC50 | viability, T/C (compound 3.16 µM) | viability, T/C (compound 10 µM) |
| --- | --- | --- | --- | --- | --- | --- | --- | --- | --- |
| CCc1c2c(nc3ccc(O)cc13)-c1cc3c(c(=O)n1C2)COC(=O)[C@]3(O)CC | 60.2% and 77.9% and 72.8% | 56.4% and 60.8% and 57.2% | 59.9% and 65.7% and 60.6% | 48.4% and 64.6% and 47.4% | 33.3% and 41.8% and 31.2% | 18.5% and 31.8% and 23.8% | 7.02 and 6.66 and 7.20 | – | – |
| C=CC(=O)N1CCN(c2nc(=O)n(-c3c(C)ccnc3C(C)C)c3nc(-c4c(O)cccc4F)c(F)cc23)C(C)C1 (stereo unspecified) | – | – | 74.3% and 68% and 64% | 64.8% and 60.8% and 63.8% | 75.8% and 70.3% and 81.9% | 72.6% and 83.2% and 78.3% | < 5.00 | 91.3% and 76.7% and 85% | 81.6% and 83.3% and 76.6% |
| COc1cccc2c1C(=O)c1c(O)c3c(c(O)c1C2=O)CC(O)(C(=O)CO)CC3OC1CC(N)C(O)C(C)O1 (stereo unspecified) | – | – | 61.8% and 66.7% and 64% | 56.7% and 69.8% and 55.9% | 51.5% and 57.7% and 47.7% | 10.3% and 22.2% and 5.53% | 6.48 and 6.39 and 6.61 | 0.4% and 0.3% and 0.29% | 0.27% and 0.25% and 0.3% |
| CCCS(=O)(=O)Nc1ccc(F)c(C(=O)c2c[nH]c3ncc(-c4ccc(Cl)cc4)cc23)c1F | – | – | 107% and 115% and 95.1% | 95.8% (2×) and 89.8% | 102% and 90.4% and 116% | 105% and 107% and 95.2% | 5.01 and 5.05 and 5.12 | 79.3% and 101% and 95.3% | 49.6% and 44.3% and 34.8% |
| COc1cc(C2c3cc4c(cc3C(OC3OC5COC(C)OC5C(O)C3O)C3COC(=O)C23)OCO4)cc(OC)c1O (stereo unspecified) | – | – | 99.9% and 95.2% and 109% | 86.2% and 78.2% and 89.1% | 85.3% and 96.4% and 83.7% | 63.6% and 76.7% and 66.2% | 5.09 and < 5.00 | 61.5% and 67.9% and 60% | 47.5% and 57.3% and 49.9% |
| O=C(Nc1ccc(O)c(NS(=O)(=O)c2ccc(F)cc2)c1)c1ccc(-c2ccccc2)cc1 | – | – | 87.6% and 93.4% and 107% | 107% and 88.9% and 92.8% | 91.6% and 80.3% and 81.8% | 89.6% and 92.9% and 90.9% | < 5.00 | 99.8% and 81.8% and 76.2% | 75.6% and 74.6% and 59% |
| CNCc1ccc(-c2[nH]c3cc(F)cc4c3c2CCNC4=O)cc1 | – | – | 92.6% and 94.5% and 97.7% | 92% and 95.6% and 100% | 96.7% and 92.8% and 89.4% | 96.9% and 93.2% and 104% | < 5.00 | 95.2% and 98.2% and 99.7% | 77.3% and 88.2% and 74.5% |
| CC1COCCN1c1cc(-c2ccnn2C)c2ccnc(-c3ccn[nH]3)c2n1 (stereo unspecified) | – | – | 83.5% and 90% and 77.5% | 51.3% and 58.9% and 59.6% | 43.9% and 45.8% and 56.5% | 36.8% and 37.4% and 36.7% | 6.82 and 6.68 and 6.41 | 32.3% and 29.7% and 40.9% | 27.4% and 31.1% and 28.9% |
